The assay has as its target T1, hGLP1 receptor (Homo sapiens, UniProt P43220).
T1 construct: expressed in transfected cells; host or cells: HEK (human embryonic kidney) cells co-expressing hGLP1 receptor and a CRE-Luciferase construct
Nature of the assay: cAMP HTRF agonist assay in HEK cells co-expressing the hGLP1 receptor and CRE-Luciferase construct. To be noted: for potency compared with the parent peptide analog (1-2), in words: replacement of Aib2, versus parent 1-2; for potency relative to the parent peptide (1-4), fold less potent: versus parent 1-4. Type of assay: cell-based. Here is the method: Human embryonic kidney cells (HEK) co-expressing the hGLP1 receptor and CRE-Luciferase construct were used to determine agonist potency in this assay. The cells were thawed briefly at 37° C., transferred to a sterile tube and re-suspended in complete media at 37° C. Cells were centrifuged at 1000 rpm for 5 minutes and cells collected; cells were re-suspended in assay buffer consisting of DPBS (GIBCO) with 500 μM of the phosphodiesterase inhibitor IBMX. […] The optimal cell density was determined to be 1000 cells/well; cells were added to wells in 384-well plates containing appropriate pre-prepared dilutions of compounds (test peptides or reference compound exendin-4), sealed and incubated with CO2 for 30 min. Test peptide solutions were diluted from 10 mM stock solutions; for most peptides an initial run was performed in duplicate from a maximal concentration of 1.0 μM, with 11 concentrations tested for each peptide using serial 1:3 dilution from this maximal concentration. […] The agonist assay was a homogeneous time-resolved fluorescence (HTRF) assay (Cisbio).
Following incubation of the cells for 30 minutes with test or reference peptides, 5 μL of the cAMP acceptor cAMP-d2, prepared previously as a working solution from frozen stock (1:20 dilution), was added to each well of the assay plate, along with 5 μL of anti-cAMP antibody-cryptate working solution (diluted 1:20 from frozen stock). The wells were incubated for 1 hour at room temperature, and fluorescence was then read at 665 and 615 nm with an Envision reader with TRF laser. Data were saved and analyzed using Prism software (GraphPad). Concentration-response analysis was performed using 4-parameter logistic fits of the resulting data, and EC50 values obtained for each test and reference compound.

Setting [1] is: read-out: cAMP EC50, nM (0.1% albumin), Table 6, C-terminal PK-modifier conjugates, 0.1% albumin.

Like-named read-outs stand apart in the source and are kept apart here. Numbered stars: 1 amine (or outer) side, 2 acyl side, 3 side chain; on linkers, the order of the positions; unused ones are H or OH. Square brackets hold non-standard residues; d marks the D form. Side chains are listed from the residue outwards. Peptide text beside a SMILES is read from it. * marks the point of attachment. ξ: configuration not given here. Dap(Nα-HOOC(CH2)16CO)OH = O=C(O)CCCCCCCCCCCCCCCCC(=O)N[C@@H](CN*)C(=O)O; X6 = O=C([C@H](CCc1ccc(OC(=O)[*:3])cc1)N[*:1])[*:2]; Bip = N[C@@H](Cc1ccc(-c2ccccc2)cc1)C(=O)O; C18 diacid = O=C(O)CCCCCCCCCCCCCCCCC(=O)*; Hydrocinnamoyl(4-I) = O=C(CCc1ccc(I)cc1)*; X2 = O=C(CCc1ccc(I)cc1)N[C@@H](CN*)C(=O)O; αMePhe(2-F) = C[C@](N)(Cc1ccccc1F)C(=O)O; ξαMePhe(2-F) = CC(N)(Cc1ccccc1F)C(=O)O; hPhe = N[C@@H](CCc1ccccc1)C(=O)O; αMeF = C[C@](N)(Cc1ccccc1)C(=O)O; αMeP = C[C@@]1(C(=O)O)CCCN1; dDap = NC[C@@H](N)C(=O)O; ξαMeP = CC1(C(=O)O)CCCN1; ξαMeS = CC(N)(CO)C(=O)O; AEEA = NCCOCCOCC(=O)O; Aib = CC(C)(N)C(=O)O

T1 sequence (P43220 24-463): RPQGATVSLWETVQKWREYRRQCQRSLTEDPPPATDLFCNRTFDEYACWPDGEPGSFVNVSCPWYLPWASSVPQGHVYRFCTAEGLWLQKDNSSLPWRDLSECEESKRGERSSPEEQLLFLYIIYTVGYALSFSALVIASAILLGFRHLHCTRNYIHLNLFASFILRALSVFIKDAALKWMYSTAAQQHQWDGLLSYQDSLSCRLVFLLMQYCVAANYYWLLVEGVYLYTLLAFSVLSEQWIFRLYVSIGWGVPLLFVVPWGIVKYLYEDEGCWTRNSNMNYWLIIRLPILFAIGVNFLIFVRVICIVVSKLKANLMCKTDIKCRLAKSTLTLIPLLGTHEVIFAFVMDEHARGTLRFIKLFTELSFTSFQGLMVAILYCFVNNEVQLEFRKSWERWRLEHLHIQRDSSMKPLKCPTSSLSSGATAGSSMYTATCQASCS

Turning to `C[C@@H](O)[C@H](NC(=O)CNC(=O)[C@H](CCC(=O)O)NC(=O)C(C)(C)NC(=O)[C@@H](N)Cc1c[nH]cn1)C(=O)N[C@@](C)(Cc1ccccc1)C(=O)N[C@H](C(=O)N[C@@H](CO)C(=O)N[C@@H](CC(=O)O)C(=O)N[C@@H](Cc1ccc(-c2ccccc2)cc1)C(=O)N[C@@H](Cc1ccc(-c2ccccc2)cc1)C(N)=O)[C@@H](C)O` [3-16, H2N-His-Aib-Glu-Gly-Thr-α-MePhe-Thr-Ser-Asp-Bip-Bip-C(O)NH2] (H-H[Aib]EGT[αMeF]TSD[Bip][Bip]-NH2), the half-maximal effective concentration (EC50) (cAMP EC50, nM (0.1% albumin), Table 1, Phe6 modifications, 0.1% albumin) was 0.32 nM.

As to `C[C@@H](O)[C@H](NC(=O)CNC(=O)[C@H](CCC(=O)O)NC(=O)C(C)(C)NC(=O)[C@@H](N)Cc1c[nH]cn1)C(=O)N[C@@](C)(Cc1ccccc1)C(=O)N[C@H](C(=O)N[C@@H](CO)C(=O)N[C@@H](CC(=O)O)C(=O)N[C@@H](Cc1ccc(-c2ccccc2)cc1)C(=O)N[C@@H](Cc1ccc(-c2ccccc2)cc1)C(N)=O)[C@@H](C)O` [3-17, H2N-His-Aib-Glu-Gly-Thr-α-MePhe-Thr-Ser-Asp-Bip-Bip-C(O)NH2] (H-H[Aib]EGT[αMeF]TSD[Bip][Bip]-NH2), the concentration for a half-maximal effect (EC50) (Table 1, cell annotated (0% albumin), read-out: cAMP EC50) stood at 0.08 nM. On to `CC(C)[C@H](NC(=O)[C@@H](N)Cc1c[nH]cn1)C(=O)N[C@@H](CCC(=O)O)C(=O)NCC(=O)N[C@H](C(=O)N[C@@](C)(Cc1ccccc1F)C(=O)N[C@H](C(=O)N[C@@H](CO)C(=O)N[C@@H](CC(=O)O)C(=O)N[C@@H](Cc1ccc(-c2ccccc2)cc1)C(=O)N[C@@H](Cc1ccc(-c2ccccc2)cc1)C(N)=O)[C@@H](C)O)[C@@H](C)O` [3-39, H2N-His-Val-Glu-Gly-Thr-α-MePhe(2-F)-Thr-Ser-Asp-Bip-Bip-C(O)NH2] (H-HVEGT[αMePhe(2-F)]TSD[Bip][Bip]-NH2), for which the “potency compared with the parent peptide analog (1-2), in words” value was “slightly less potency”. On the same count and under the same terms, as for `C[C@@H](O)[C@H](NC(=O)CNC(=O)[C@H](CCC(=O)O)NC(=O)[C@]1(C)CCCN1C(=O)[C@@H](N)Cc1c[nH]cn1)C(=O)N[C@@](C)(Cc1ccccc1F)C(=O)N[C@H](C(=O)N[C@@H](CO)C(=O)N[C@@H](CC(=O)O)C(=O)N[C@@H](Cc1ccc(-c2ccccc2)cc1)C(=O)N[C@@H](Cc1ccc(-c2ccccc2)cc1)C(N)=O)[C@@H](C)O` [3-40, H2N-His-α-MePro-Glu-Gly-Thr-α-MePhe(2-F)-Thr-Ser-Asp-Bip-Bip-C(O)NH2] (H-H[αMeP]EGT[αMePhe(2-F)]TSD[Bip][Bip]-NH2), the entry is “significantly greater potency”. Molecule `C[C@@H](O)[C@H](NC(=O)CNC(=O)[C@H](CCC(=O)O)NC(=O)C1(C)CCCN1C(=O)[C@@H](N)Cc1c[nH]cn1)C(=O)NC(C)(Cc1ccccc1F)C(=O)NC(C)(CO)C(=O)N[C@@H](CO)C(=O)N[C@@H](CC(=O)O)C(=O)N[C@@H](Cc1ccc(-c2ccccc2)cc1)C(=O)N[C@@H](Cc1ccc(-c2ccccc2)cc1)C(N)=O` (some centres unmarked) [3-59] (H-H[ξαMeP]EGT[ξαMePhe(2-F)][ξαMeS]SD[Bip][Bip]-NH2) registered an EC50 (cAMP EC50, nM (0.1% albumin), Table 4, N-terminal modifications, 0.1% albumin) of 20.9 nM. Consider `C[C@@H](O)[C@H](NC(=O)CNC(=O)[C@H](CCC(=O)O)NC(=O)C(C)(C)NC(=O)[C@@H](N)Cc1c[nH]cn1)C(=O)N[C@@](C)(Cc1ccccc1F)C(=O)N[C@H](C(=O)N[C@@H](CO)C(=O)N[C@@H](CC(=O)O)C(=O)N[C@@H](Cc1ccc(-c2ccccc2)cc1)C(=O)N[C@@H](CCc1ccccc1)C(=O)O)[C@@H](C)O` [4-1, H2N-His-Aib-Glu-Gly-Thr-α-MePhe(2-F)-Thr-Ser-Asp-Bip-Hph-C(O)OH] (H-H[Aib]EGT[αMePhe(2-F)]TSD[Bip][hPhe]-OH), for which the “potency relative to the parent peptide (1-4), fold less potent” value was “about 30 fold”.

Take `C[C@@H](O)[C@H](NC(=O)CNC(=O)[C@H](CCC(=O)O)NC(=O)C(C)(C)NC(=O)[C@@H](N)Cc1c[nH]cn1)C(=O)N[C@@](C)(Cc1ccccc1F)C(=O)N[C@H](C(=O)N[C@@H](CO)C(=O)N[C@@H](CC(=O)O)C(=O)N[C@@H](Cc1ccc(-c2ccccc2)cc1)C(=O)N[C@@H](CCc1ccccc1)C(=O)NCCOCCOCC(=O)NCCOCCOCC(=O)NC[C@H](NC(=O)CCCCCCCCCCCCCCCCC(=O)O)C(=O)O)[C@@H](C)O` [4-36, H2N-His-Aib-Glu-Gly-Thr-α-MePhe(2-F)-Thr-Ser-Asp-Bip-Hph-C(O)NH-RY2] (H-H[Aib]EGT[αMePhe(2-F)]TSD[Bip][hPhe][AEEA][AEEA]-{Dap(Nα-HOOC(CH2)16CO)OH}): the “potency relative to the parent peptide (1-4), fold less potent” value was found to be 15 fold.

Consider `C[C@@H](O)[C@H](NC(=O)CNC(=O)[C@H](CCC(=O)O)NC(=O)C(C)(C)NC(=O)[C@@H](N)Cc1c[nH]cn1)C(=O)N[C@@](C)(Cc1ccccc1F)C(=O)N[C@H](C(=O)N[C@@H](CO)C(=O)N[C@@H](CC(=O)O)C(=O)N[C@@H](Cc1ccc(-c2ccccc2)cc1)C(=O)N[C@@H](CCc1ccccc1)C(=O)NCCOCCOCC(=O)NCCOCCOCC(=O)NCCOCCOCC(=O)NC[C@H](NC(=O)CCc1ccc(I)cc1)C(=O)O)[C@@H](C)O` [4-37, H2N-His-Aib-Glu-Gly-Thr-α-MePhe(2-F)-Thr-Ser-Asp-Bip-Hph-C(O)NH-RY3] (H-H[Aib]EGT[αMePhe(2-F)]TSD[Bip][hPhe][AEEA][AEEA][AEEA]-X2), for which the “potency relative to the parent peptide (1-4), fold less potent” value is listed as “equipotency”. Further, the EC50 under setting [1] turned out to be 4.08 nM. Consider `C[C@@H](O)[C@H](NC(=O)CNC(=O)[C@H](CCC(=O)O)NC(=O)C(C)(C)NC(=O)[C@@H](N)Cc1c[nH]cn1)C(=O)N[C@@](C)(Cc1ccccc1F)C(=O)N[C@H](C(=O)N[C@@H](CO)C(=O)N[C@@H](CC(=O)O)C(=O)N[C@@H](Cc1ccc(-c2ccccc2)cc1)C(=O)N[C@@H](CCc1ccc(OC(=O)NCCOCCOCC(=O)NCCOCCOCC(N)=O)cc1)C(N)=O)[C@@H](C)O` [4-38, H2N-His-Aib-Glu-Gly-Thr-α-MePhe(2-F)-Thr-Ser-Asp-Bip-Hph(4-OR4)-C(O)NH2] (H-H[Aib]EGT[αMePhe(2-F)]TSD[Bip][X6]([AEEA-AEEA-NH2])-NH2), for which the EC50 under setting [1] is 320 nM. Same read-out and setting: as for `C[C@@H](O)[C@H](NC(=O)CNC(=O)[C@H](CCC(=O)O)NC(=O)C(C)(C)NC(=O)[C@@H](N)Cc1c[nH]cn1)C(=O)N[C@@](C)(Cc1ccccc1F)C(=O)N[C@H](C(=O)N[C@@H](CO)C(=O)N[C@@H](CC(=O)O)C(=O)N[C@@H](Cc1ccc(-c2ccccc2)cc1)C(=O)N[C@@H](CCc1ccc(OC(=O)NCCOCCOCC(=O)NCCOCCOCC(=O)NC[C@H](NC(=O)CCCCCCCCCCCCCCCCC(=O)O)C(=O)O)cc1)C(N)=O)[C@@H](C)O` [4-39, H2N-His-Aib-Glu-Gly-Thr-α-MePhe(2-F)-Thr-Ser-Asp-Bip-Hph(4-OR5)-C(O)NH2] (H-H[Aib]EGT[αMePhe(2-F)]TSD[Bip][X6]([AEEA-AEEA-Dap(Nα-HOOC(CH2)16CO)OH])-NH2), the figure is 232 nM; as for `C[C@@H](O)[C@H](NC(=O)CNC(=O)[C@H](CCC(=O)O)NC(=O)C(C)(C)NC(=O)[C@@H](N)Cc1c[nH]cn1)C(=O)N[C@@](C)(Cc1ccccc1F)C(=O)N[C@H](C(=O)N[C@@H](CO)C(=O)N[C@@H](CC(=O)O)C(=O)N[C@@H](Cc1ccc(-c2ccccc2)cc1)C(=O)N[C@@H](CCc1ccc(OC(=O)NCCOCCOCC(=O)NCCOCCOCC(=O)NCCOCCOCC(=O)NC[C@H](NC(=O)CCc2ccc(I)cc2)C(=O)O)cc1)C(N)=O)[C@@H](C)O` [4-40, H2N-His-Aib-Glu-Gly-Thr-α-MePhe(2-F)-Thr-Ser-Asp-Bip-Hph(4-OR6)-C(O)NH2] (H-H[Aib]EGT[αMePhe(2-F)]TSD[Bip][X6]([AEEA-AEEA-AEEA-X2])-NH2), 49.7 nM.

As for `C[C@@H](O)[C@H](NC(=O)CNC(=O)[C@H](CCC(=O)O)NC(=O)C(C)(C)NC(=O)[C@@H](N)Cc1c[nH]cn1)C(=O)N[C@@](C)(Cc1ccccc1F)C(=O)N[C@H](C(=O)N[C@@H](CO)C(=O)N[C@@H](CC(=O)O)C(=O)N[C@@H](Cc1ccc(-c2ccccc2)cc1)C(=O)N[C@@H](Cc1ccc(-c2ccccc2)cc1)C(=O)NCCOCCOCC(=O)NCCOCCOCC(=O)N[C@H](CNC(=O)CCCCCCCCCCCCCCCCC(=O)O)C(N)=O)[C@@H](C)O` [4-46, H2N-His-Aib-Glu-Gly-Thr-α-MePhe(2-F)-Thr-Ser-Asp-Bip-Bip-C(O)NH-RY8] (H-H[Aib]EGT[αMePhe(2-F)]TSD[Bip][Bip][AEEA][AEEA][dDap](C18 diacid)-NH2), the EC50 under setting [1] is 5.4 nM.

Regarding `C[C@@H](O)[C@H](NC(=O)CNC(=O)[C@H](CCC(=O)O)NC(=O)C(C)(C)NC(=O)[C@@H](N)Cc1c[nH]cn1)C(=O)N[C@@](C)(Cc1ccccc1F)C(=O)N[C@H](C(=O)N[C@@H](CO)C(=O)N[C@@H](CC(=O)O)C(=O)N[C@@H](Cc1ccc(-c2ccccc2)cc1)C(=O)N[C@@H](Cc1ccc(-c2ccccc2)cc1)C(=O)NCCOCCOCC(=O)NCCOCCOCC(=O)NCCOCCOCC(=O)N[C@H](CNC(=O)CCc1ccc(I)cc1)C(N)=O)[C@@H](C)O` [4-47, H2N-His-Aib-Glu-Gly-Thr-α-MePhe(2-F)-Thr-Ser-Asp-Bip-Bip-C(O)NH-RY9] (H-H[Aib]EGT[αMePhe(2-F)]TSD[Bip][Bip][AEEA][AEEA][AEEA][dDap](Hydrocinnamoyl(4-I))-NH2), the half-maximal effective concentration (EC50) under setting [1] amounted to 0.6 nM.
